PMC12203862, “BroadAMP-GPT: AI-Driven generation of broad-spectrum antimicrobial peptides for combating multidrug-resistant ESKAPE pathogens” (Gut Microbes, 2025)
In brackets after ≈: the same amount, converted by molar mass.

Experiments:
[1] = system: S. aureus ATCC 29213; experiment: microbe, parasite or virus in culture; type: cell-based; settings: Staphylococcus aureus, ATCC29213; Table 1; S. aureus ATCC 29213; broth microdilution, CLSI M100-ED34; read-out: MIC
[2] = system: A. baumannii 7979; experiment: microbe, parasite or virus in culture; type: cell-based; settings: Acinetobacter baumannii; Table 1; A. baumannii 7979; broth microdilution; read-out: MIC
Experimental: (§1) Bacterial strains and growth conditions: All Gram-negative and Gram-positive bacterial strains (Supplementary Table S8) were cultured in Luria-Bertani (LB) or trypticase soy broth (TSB) agar plates, respectively, and incubated overnight at 37 °C unless specifically indicated. A single colony of the tested bacterial strains was inoculated into medium broth with shaking at 220 rpm for further experiments.
(§2) Minimal inhibitory concentrations: Antimicrobial susceptibility testing was performed by broth microdilution method for AMPs against Gram-positive and Gram-negative pathogens above mentioned, following the methods of document CLSI M100-ED34.[43] The MICs were defined as the lowest concentrations that inhibit visible growth of the tested bacteria. E. coli ATCC 25,922 and S. aureus ATCC 29,213 were served as quality controls.

[3] = system: A. baumannii AB11; experiment: microbe, parasite or virus in culture; type: cell-based; settings: Acinetobacter baumannii; Table 1; A. baumannii AB11; broth microdilution; read-out: MIC
Experimental: as §1, §2

[4] = system: E. coli ATCC 25922; experiment: microbe, parasite or virus in culture; type: cell-based; settings: Escherichia coli, ATCC25922; Table 1; E. coli ATCC 25922; broth microdilution; read-out: MIC
Experimental: as §1, §2

[5] = system: E. faecalis ES01; experiment: microbe, parasite or virus in culture; type: cell-based; settings: Enterococcus faecalis; Table 1; E. faecalis ES01; ermB, vanB; broth microdilution; read-out: MIC
Experimental: as §1, §2

[6] = system: E. faecalis J2; experiment: microbe, parasite or virus in culture; type: cell-based; settings: Enterococcus faecalis; Table 1; E. faecalis J2; ermB, optrA; broth microdilution; read-out: MIC
Experimental: as §1, §2

[7] = system: E. faecalis JH2-2; experiment: microbe, parasite or virus in culture; type: cell-based; settings: Enterococcus faecalis, JH22; Table 1; E. faecalis JH2-2; broth microdilution; read-out: MIC
Experimental: as §1, §2

[8] = system: E. faecalis SF23-1; experiment: microbe, parasite or virus in culture; type: cell-based; settings: Enterococcus faecalis, SF231; Table 1; E. faecalis SF23-1; ermB, tetL, cfr; broth microdilution; read-out: MIC
Experimental: as §1, §2

[9] = system: E. faecium HFY01; experiment: microbe, parasite or virus in culture; type: cell-based; settings: Enterococcus faecium; Table 1; E. faecium HFY01; broth microdilution; read-out: MIC
Experimental: as §1, §2

[10] = system: E. faecium MC38; experiment: microbe, parasite or virus in culture; type: cell-based; settings: Enterococcus faecium; Table 1; E. faecium MC38; ermB, optrA; broth microdilution; read-out: MIC
Experimental: as §1, §2

[11] = system: E. faecium QF31; experiment: microbe, parasite or virus in culture; type: cell-based; settings: Enterococcus faecium; Table 1; E. faecium QF31; ermB, cfr; broth microdilution; read-out: MIC
Experimental: as §1, §2

[12] = system: K. pneumoniae 9-1; experiment: microbe, parasite or virus in culture; type: cell-based; settings: Klebsiella pneumoniae, 91; Table 1; K. pneumoniae 9-1; broth microdilution; read-out: MIC
Experimental: as §1, §2

[13] = system: P. aeruginosa PA14; experiment: microbe, parasite or virus in culture; type: cell-based; settings: Pseudomonas aeruginosa; Table 1; P. aeruginosa PA14; broth microdilution; read-out: MIC
Experimental: as §1, §2

[14] = system: P. aeruginosa PAO1; experiment: microbe, parasite or virus in culture; type: cell-based; settings: Pseudomonas aeruginosa; Table 1; P. aeruginosa PAO1; broth microdilution; read-out: MIC
Experimental: as §1, §2

[15] = system: S. agalactiae DL03; experiment: microbe, parasite or virus in culture; type: cell-based; settings: Streptococcus agalactiae; Table 1; S. agalactiae DL03; ermB; broth microdilution; read-out: MIC
Experimental: as §1, §2

[16] = system: S. aureus M147-2; experiment: microbe, parasite or virus in culture; type: cell-based; settings: Staphylococcus aureus, M1472; Table 1; S. aureus M147-2; ermB, tetL, cfr; broth microdilution; read-out: MIC
Experimental: as §1, §2

[17] = system: S. aureus M92-1; experiment: microbe, parasite or virus in culture; type: cell-based; settings: Staphylococcus aureus, M921; Table 1; S. aureus M92-1; ermB, tetL, optrA; broth microdilution; read-out: MIC
Experimental: as §1, §2

[18] = system: S. aureus YZSA-15; experiment: microbe, parasite or virus in culture; type: cell-based; settings: Staphylococcus aureus, YZSA15; Table 1; S. aureus YZSA-15; ermC, vanB; broth microdilution; read-out: MIC
Experimental: as §1, §2

[19] = system: S. aureus YZSA-21; experiment: microbe, parasite or virus in culture; type: cell-based; settings: Staphylococcus aureus, YZSA21; Table 1; S. aureus YZSA-21; ermC; broth microdilution; read-out: MIC
Experimental: as §1, §2

[20] = system: S. aureus YZSA-24; experiment: microbe, parasite or virus in culture; type: cell-based; settings: Staphylococcus aureus, YZSA24; Table 1; S. aureus YZSA-24; ermC, mecA; broth microdilution; read-out: MIC
Experimental: as §1, §2

[21] = system: S. pyogenes DL02; experiment: microbe, parasite or virus in culture; type: cell-based; settings: Streptococcus pyogenes; Table 1; S. pyogenes DL02; ermB; broth microdilution; read-out: MIC
Experimental: as §1, §2

[22] = system: S. suis SH0918; experiment: microbe, parasite or virus in culture; type: cell-based; settings: Streptococcus suis; Table 1; S. suis SH0918; ermB, tetO, optrA; broth microdilution; read-out: MIC
Experimental: as §1, §2

[23] = system: S. suis P1/7; experiment: microbe, parasite or virus in culture; settings: Streptococcus suis, P1/7
Experimental: as §1
as §2, with “bacteria.” for “bacteria. E. coli ATCC 25,922 and S. aureus ATCC 29,213 were served as quality controls.”

[24] = system: S. enteritis S1; experiment: organism not typed; type: cell-based; settings: Table 1; S. enteritis S1; broth microdilution; read-out: MIC
Experimental: as §1, §2

| Structure (SMILES) | MIC [1] [mg/L] | MIC [2] [mg/L] | MIC [3] [mg/L] | MIC [4] [mg/L] | MIC [5] [mg/L] | MIC [6] [mg/L] | MIC [7] [mg/L] | MIC [8] [mg/L] | MIC [9] [mg/L] | MIC [10] [mg/L] | MIC [11] [mg/L] | MIC [12] [mg/L] | MIC [13] [mg/L] | MIC [14] [mg/L] | MIC [15] [mg/L] | MIC [16] [mg/L] | MIC [17] [mg/L] | MIC [18] [mg/L] | MIC [19] [mg/L] | MIC [20] [mg/L] | other results |
| --- | --- | --- | --- | --- | --- | --- | --- | --- | --- | --- | --- | --- | --- | --- | --- | --- | --- | --- | --- | --- | --- |
| CO[C@@]1(NC(=O)Cc2cccs2)C(=O)N2C(C(=O)O)=C(COC(N)=O)CS[C@@H]21 [FOX, Cefoxitin] | 1 (≈ 2.34 µM) | > 64 | 16 (≈ 37.4 µM) | 0.25 (≈ 0.585 µM) | > 64 | > 64 | > 64 | > 64 | 8 (≈ 18.7 µM) | > 64 | > 64 | > 64 | > 64 | > 64 | 4 (≈ 9.36 µM) | 4 (≈ 9.36 µM) | 4 (≈ 9.36 µM) | 2 (≈ 4.68 µM) | 4 (≈ 9.36 µM) | 32 (≈ 74.9 µM) | MIC [21]: 1 mg/L (≈ 2.34 µM); MIC [22]: 8 mg/L (≈ 18.7 µM); MIC [23]: 1 mg/L (≈ 2.34 µM); MIC [24]: 32 mg/L (≈ 74.9 µM) |
| CC1(C)S[C@@H]2[C@H](NC(=O)[C@H](N)c3ccccc3)C(=O)N2[C@H]1C(=O)O [AMP, Ampicillin] | 1 (≈ 2.86 µM) | > 64 | < 0.06 | 2 (≈ 5.72 µM) | 16 (≈ 45.8 µM) | 16 (≈ 45.8 µM) | 16 (≈ 45.8 µM) | 16 (≈ 45.8 µM) | 1 (≈ 2.86 µM) | 32 (≈ 91.6 µM) | 32 (≈ 91.6 µM) | > 64 | > 64 | > 64 | 0.25 (≈ 0.715 µM) | 16 (≈ 45.8 µM) | 16 (≈ 45.8 µM) | 2 (≈ 5.72 µM) | 1 (≈ 2.86 µM) | > 64 | MIC [21]: 0.5 mg/L (≈ 1.43 µM); MIC [22]: 0.25 mg/L (≈ 0.715 µM); MIC [23]: 0.5 mg/L (≈ 1.43 µM); MIC [24]: 32 mg/L (≈ 91.6 µM) |
